Assay results from patent US6875760B2 (Novo Nordisk A/S, priority 1999, dated 2005).

What was measured:
[1] = biological target: T1, cloned human glucagon receptor (Homo sapiens, UniProt P47871); test: Glucagon Binding Assay (I); details: for IC50: plasma membranes of BHK cells expressing the receptor, 125I-glucagon tracer, read-out: Glu Bd Assay (I) IC50
T1 construct: expressed in transfected cells; plasma membrane preparation
Description: Binding of compounds to the glucagon receptor was determined in a competition binding assay using the cloned human glucagon receptor.
Receptor binding was assayed using cloned human receptor (Lok et al., Gene 140, 203-209 (1994)). The receptor inserted in the pLJ6′ expression vector using EcoRI/SSt1 restriction sites (Lok et al.) was expressed in a baby hamster kidney cell line (A3 BHK 570-25).
Plasma membranes were prepared by growing cells to confluence, detaching them from the surface and resuspending the cells in cold buffer (10 mM tris/HCl, pH 7.4 containing 30 mM NaCl, 1 mM dithiothreitol, 5 mg/L leupeptin (Sigma), 5 mg/L pepstatin (Sigma), 100 mg/L bacitracin (Sigma) and 15 mg/L recombinant aprotinin (Novo Nordisk A/S)), homogenization by two 10-s bursts using a Polytron PT 10-35 homogenizer (Kinematica), and centrifugation upon a layer of 41 w/v % sucrose at 95.000×g for 75 min. The white band located between the two layers was diluted in buffer and centrifuged at 40.000×g for 45 min. The precipitate containing the plasma membranes was suspended in buffer and stored at −80° C. until use. Glucagon was iodinated according to the chloramine T method (Hunter and Greenwood, Nature 194, 495 (1962)) and purified using anion exchange chromatography (Jørgensen et al., Hormone and Metab. Res. 4, 223-224 (1972). The specific activity was 460 μCi/μg on the day of iodination. Tracer was stored at −18° C. in aliquots and were used immediately after thawing.
Binding assays were carried out in triplicate in filter microtiter plates (MADV N65, Millipore). The buffer used in this assay was 50 mM HEPES, 5 mM EGTA, 5 mM MgCl2, 0.005% tween 20, pH 7.4. Glucagon was dissolved in 0.05 M HCl, added an equal amount (w/w) of HSA and freeze-dried. On the day of use, it was dissolved in water and diluted in buffer to the desired concentrations.
Test compounds were dissolved and diluted in DMSO. 140 μL buffer, 25 μL glucagon or buffer, and 10 μL DMSO or test compound were added to each well. Tracer (50.000 cpm) was diluted in buffer and 25 μL were added to each well. 1-4 μg freshly thawed plasma membrane protein diluted in buffer was then added in aliquots of 25 μL to each well. Plates were incubated at 30° C. for 2 hours. Non-specific binding was determined with 10^−6 M of glucagon. Bound tracer and unbound tracer were then separated by vacuum filtration (Millipore vacuum manifold). The plates were washed with 2×100 μL buffer/well. The plates were air dried for a couple of hours, whereupon the filters were separated from the plates using a Millipore Puncher. The filters were counted in a gamma counter.

[2] = biological target: T2, human glucagon receptor (Homo sapiens, UniProt P47871); test: Glucagon Binding Assay (III); details: Glu Bd Assay (III) IC50 (nM), BHK cell membranes, WGA SPA beads, 125I-glucagon
T2 construct: expressed in transfected cells; host or cells: BHK (baby hamster kidney) cells
Procedure, shortened: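 Non-specific binding was set with 500 nM glucagon in this SPA-type binding assay using WGA beads. The receptor source was a membrane preparation, kept on ice or at 4 °C, from BHK cells transfected with the human receptor. Scintillation counts were taken after 4 hours of shaking and 8–48 hours of settling.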

T1 sequence (P47871 26-477): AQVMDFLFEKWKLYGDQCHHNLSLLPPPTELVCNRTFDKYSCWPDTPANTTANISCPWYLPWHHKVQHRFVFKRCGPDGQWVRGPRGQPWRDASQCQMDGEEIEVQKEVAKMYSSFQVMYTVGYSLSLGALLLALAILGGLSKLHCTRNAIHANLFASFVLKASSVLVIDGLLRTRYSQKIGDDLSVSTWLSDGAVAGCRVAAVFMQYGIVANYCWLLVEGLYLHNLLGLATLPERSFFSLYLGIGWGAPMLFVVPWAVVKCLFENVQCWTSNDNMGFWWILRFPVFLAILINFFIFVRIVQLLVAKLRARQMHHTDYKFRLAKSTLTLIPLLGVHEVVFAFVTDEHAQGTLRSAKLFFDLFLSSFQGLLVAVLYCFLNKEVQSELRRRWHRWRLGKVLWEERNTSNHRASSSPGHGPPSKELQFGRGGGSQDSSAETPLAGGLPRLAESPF
T2 sequence (P47871 26-477): as above

| SMILES | Glu Bd Assay (I) Effect, 100-Residual binding (%) at 1 μM [1] [%] | IC50 [1] [nM] | other results |
| --- | --- | --- | --- |
| CCCCC(CC)CN(Cc1ccc(C(=O)NCCC(=O)O)cc1)C(=O)/C=C/c1c(Cl)cccc1Cl (stereo not drawn) [Example 5, 3-(4-{[N-[3-(2,6-Dichlorophenyl)acryloyl]-N-(2-ethylhexyl)amino]methyl}benzoylamino)propionic acid] | 31.1 | 800 | – |
| CC(C)(C)c1ccc(CN(Cc2ccc(C(=O)NCCC(=O)O)cc2)C(=O)/C=C/c2c(Cl)cccc2Cl)cc1 [Example 6, 3-(4-{[N-[3-(2,6-Dichlorophenyl)acryloyl]-N-(4-tert-butylbenzyl)amino]methyl}benzoylamino)propionic acid] | 29.5 | 1200 | – |
| CC(C)(C)c1ccc(CN(Cc2ccc(C(=O)NCCC(=O)O)cc2)C(=O)c2cc3ccccc3s2)cc1 [Example 7, 3-(4-{[N-(Benzo[b]thiophen-2-carbonyl)-N-(4-tert-butylbenzyl)amino]methyl}benzoylamino)propionic acid] | 30.4 | 845 | – |
| O=C(O)CCNC(=O)c1ccc(CN(CCC(c2ccccc2)c2ccccc2)C(=O)c2ccc(Cl)cc2)cc1 [Example 8, 3-(4-{[N-(4-Chlorobenzoyl)-N-(3,3-diphenylpropyl)amino]methyl}benzoylamino)propionic acid] | 37.8 | 675 | – |
| O=C(O)CCNC(=O)c1cccc(CN(CC(c2ccccc2)c2ccccc2)C(=O)c2csc3ccc(Cl)cc23)c1 [Example 9, 3-(3-{[N-(5-Chlorobenzo[b]thiophene-3-carbonyl)-N-(2,2-diphenylethyl)amino]methyl}benzoylamino)propionic acid] | – | – | Glu Bd Assay (I) Effect, 100-Residual binding (%) ([1]; at 500 nM): 56.4% (at 500 |
| CCCCC(CC)CN(Cc1ccc(C(=O)NCCC(=O)O)cc1)C(=O)Nc1ccc(-c2ccccc2)cc1 (stereo not drawn) [Example 10, 3-{4-[3-Biphenyl-4-yl-1-(2-ethylhexyl)ureidomethyl]benzoylamino}propionic acid] | – | 42 | – |
| CC(C)(C)C1CCC(N(Cc2ccc(C(=O)NCCC(=O)O)cc2)C(=O)Nc2ccc(OC(F)(F)F)cc2)CC1 (stereo not drawn) [Example 11, 3-{4-[1-(4-tert-Butylcyclohexyl)-3-(4-trifluoromethoxyphenyl)ureidomethyl]benzoylamino}propionic acid] | – | 27 | – |
| CC(C)(C)C1CCC(N(Cc2ccc(C(=O)NCCC(=O)O)cc2)C(=O)Nc2ccc(-c3ccccc3)cc2)CC1 (stereo not drawn) [Example 12, 3-{4-[3-Biphenyl-4-yl-1-(4-tert-butylcyclohexyl)ureidomethyl]benzoylamino}propionic acid] | – | 20 | – |
| CC(C)(C)C1CCC(N(Cc2ccc(C(=O)NCCC(=O)O)cc2)C(=O)Nc2cccc(C(F)(F)F)c2)CC1 (stereo not drawn) [Example 13, 3-{4-[1-(4-tert-Butylcyclohexyl)-3-(3-trifluoromethylphenyl)ureidomethyl]benzoylamino}propionic acid] | – | 78 | – |
| CC(C)(C)[C@H]1CC[C@H](N(Cc2ccc(C(=O)NCCC(=O)O)cc2)C(=O)Nc2ccc(OC(F)(F)F)cc2)CC1 [Example 92, 3-{4-[1-(4-trans-tert-Butylcyclohexyl)-3-(4-trifluoromethoxyphenyl)ureidomethyl]benzoylamino}propionic acid] | – | – | melting point: 152 to 154 °C; IC50 [2]: 47 nM |
